Source: publication PMC6421297, “Novel Mouse Tauopathy Model for Repetitive Mild Traumatic Brain Injury: Evaluation of Long-Term Effects on Cognition and Biomarker Levels After Therapeutic Inhibition of Tau Phosphorylation” (Frontiers in Neurology, 2019)

Assays:
[1] = tested on: tau phosphorylation at Thr231 and Ser202 in SH-SY5Y-(P301L) cells; assay type: cell-based; conditions: 6 h
Experimental: (§1) SH-SY5Y-P301L cells (gift from Prof. Fred Van Leuven, Department of Human Genetics, KU Leuven, Belgium) were cultured Dulbecco's Modified Eagle Medium (DMEM):Nutrient Mixture F-12 (DMEM/F-12, Gibco, c/o Invitrogen, Saint Aubin, France) containing 1% Penicillin-Streptomycin mixture (Gibco) and 10% fetal bovine serum (FBS, Gibco) in a humidified, 5% CO2 incubator at 37°C. Cells were split routinely once a week. Cells were seeded at a density of 1.5 x 10^6 cells/well in P60 well plates with 4 ml medium/well and exposed for 6 h to a range of ros concentrations (Figures 2–4) or to a few concentrations of various kinase inhibitors with different selectivities (Figure 3). At the end of the incubation cells were harvested for Western blotting. Cells were scraped in cold phosphate-buffered saline, centrifuged at 10,000 x g for 5 min at 4°C, and pellets were snap-frozen in liquid nitrogen. Experiments were repeated three or four times.
(§2) For Western blot analysis, cell pellets were lysed in homogenization buffer (25 mM MOPS, 15 mM EGTA, 15 mM MgCl2, 60 mM β-glycerophosphate, 15 mM p-nitrophenylphosphate, 2 mM dithiothreitol (DTT), 1 mM Na3VO4, 1 mM NaF, 1 mM disodium phenylphosphate, 1x protease inhibitor cocktail, 0.2% Nonidet P-40 substitute). Protein extracts were mixed (1:1 v/v) with sample buffer (2 × NuPAGE LDS sample buffer, 200 mM DTT) and 20 μg of total protein was loaded on NuPAGE 4–12% Bis-Tris protein gels. Electrophoresis was carried out at 70 V in MOPS buffer for 4 h. Rapid blot transfers were performed at 2.5A/25V for 7 min. […] P-tau and T-tau signals were first normalized to GAPDH from the same membranes, and then divided one by another to obtain the level of pS202 or pT231 relative to T-tau. Values are presented as mean±SEM of three or four independent experiments.

[2] = tested on: S202-Tau phosphorylation in SH-SY5Y-(P301L) cells; test: Western blot of pS202-tau/T-tau in SH-SY5Y-(P301L) cells, roscovitine and/or LiCl, with coefficient of drug interaction; assay type: cell-based; conditions: 6 h; for tau phosphorylation (pS202-tau), individual treatment: single agent
Experimental: as §1, §2
For cell cultures and immunoblotting data the two-tailed unpaired t-test (Graphpad Prism) was used. Coefficients of drug interaction (CDI) were calculated as follows: CDI = AB/(A × B). According to the ratio pS202 tau/T-tau of each group, AB is the ratio of the combination groups to control group; A or B is the ratio of the single agent group to control group. […]

epileptic rats = tested on: epileptic rats; parameters: method as in PMID 28595035; conditions: cited from earlier work
mice following TBI = conditions: cited from earlier work

SMILES: N#CC(=C(/N)Sc1ccccc1N)/C(C#N)=C(/N)Sc1ccccc1N [UO126]
- reduction of tau phosphorylation by inhibitors to secondary kinase targets ([1]; 25, 50, and 100 μM): none of the inhibitors to secondary kinase targets reduced tau phosphorylation

SMILES: COc1cccc(-c2cc(=O)c3ccccc3o2)c1N [PD098059]
- reduction of tau phosphorylation by inhibitors to secondary kinase targets ([1]; 25, 50, and 100 μM): none of the inhibitors to secondary kinase targets reduced tau phosphorylation

SMILES: CC(C)(C)c1cnc(CSc2cnc(NC(=O)C3CCNCC3)s2)o1 [SNS-032, N-[5-[[[5-(1,1-dimethylethyl)-2-oxazolyl]methyl]thio]-2-thiazolyl]-4-piperidinecarboxamide]
- Inhibition of tau phosphorylation at Thr231 and Ser202 ([1]; 25, 50, and 100 μM): evident

SMILES: [Cl-].[Li+] [LiCl, lithium chloride]
- dose-response of pS202-tau inhibition, LiCl alone ([2]; LiCl alone): no dose-response relationship
- tau phosphorylation (pS202-tau), individual treatment [2]: slightly down-regulated
- epilepsy-induced axonal impairment (epileptic rats): reversed axonal impairment

SMILES: O=C(NC1CCNCC1)c1[nH]ncc1NC(=O)c1c(Cl)cccc1Cl [AT7519]
- Inhibition of tau phosphorylation at Thr231 and Ser202 ([1]; 25, 50, and 100 μM): evident

SMILES: CCN1/C(=C/C(C)=O)Sc2ccc(OC)cc21 [TG003]
- reduction of tau phosphorylation by inhibitors to secondary kinase targets ([1]; 25, 50, and 100 μM): none of the inhibitors to secondary kinase targets reduced tau phosphorylation

SMILES: CC[C@H](CO)Nc1nc(NCc2ccccc2)c2ncn(C(C)C)c2n1 [Roscovitine, (R)-roscovitine]
- inhibition of Ser202 phosphorylation, ros alone ([2]; ros alone): moderate and dose-dependent inhibition
- tau phosphorylation (pS202-tau), individual treatment [2]: slightly down-regulated
- inhibition of Thr231 and Ser202 phosphorylation ([1]; range of ros concentrations): dose-dependent inhibition
- Inhibition of tau phosphorylation at Thr231 and Ser202 ([1]; 25, 50, and 100 μM): evident
- epilepsy-induced axonal impairment (epileptic rats): reversed axonal impairment
- cognitive deficits, spatial learning and memory after TBI (mice following TBI): attenuated cognitive deficits and improved spatial learning and memory

SMILES: CC[C@H](CO)Nc1nc(NCc2ccc(-c3ccccn3)cc2)c2ncn(C(C)C)c2n1 [CR8]
- Inhibition of tau phosphorylation at Thr231 and Ser202 ([1]; 25, 50, and 100 μM): evident

SMILES: COc1ccc2c(c1)[nH]c1c(C)nccc12 [harmine]
- reduction of tau phosphorylation by inhibitors to secondary kinase targets ([1]; 25, 50, and 100 μM): none of the inhibitors to secondary kinase targets reduced tau phosphorylation

SMILES: NC(=O)c1ccc(-c2nc(-c3ccc4c(c3)OCCO4)c(-c3ccccn3)[nH]2)cc1 [D4476]
- reduction of tau phosphorylation by inhibitors to secondary kinase targets ([1]; 25, 50, and 100 μM): none of the inhibitors to secondary kinase targets reduced tau phosphorylation

SMILES: COc1cc(OC)c(C=C2C(O)=Nc3ccccc32)c(OC)c1 [IC261]
- activity at site pSer202 ([1]; 25, 50, and 100 μM): active

SMILES: CCc1cnn2c(NCc3ccc[n+]([O-])c3)cc(N3CCCC[C@H]3CCO)nc12 [SCH727965]
- Inhibition of tau phosphorylation at Thr231 and Ser202 ([1]; 25, 50, and 100 μM): evident

SMILES: CC[C@@H](CO)Nc1nc(N(C)Cc2ccc(-c3ccccn3)cc2)c2ncn(C(C)C)c2n1 [N6-methyl-CR8]
- cause of decreases in P-tau at the high dose ([1]; 100 μM): likely the result of drug-associated cell toxicity
- Inhibition of tau phosphorylation at Thr231 and Ser202 ([1]; 25, 50, and 100 μM): not

SMILES: CCC(CO)Nc1nc(N(C)Cc2ccccc2)c2ncn(C(C)C)c2n1 (centres unmarked) [N6-methyl-roscovitine]
- Inhibition of tau phosphorylation at Thr231 and Ser202 ([1]; 25, 50, and 100 μM): not

SMILES: O=C1NC(Nc2ccccc2)=N/C1=C\c1ccc2c(c1)OCO2 [Leucettine 41]
- reduction of tau phosphorylation by inhibitors to secondary kinase targets ([1]; 25, 50, and 100 μM): none of the inhibitors to secondary kinase targets reduced tau phosphorylation
